The experiment relates to Rice (cultivar: Nipponbare). In words: Test Example 7: reduction of drought stress by treatment of rice seeds. Type of experiment: in vivo. The following applies: drought 2 days, then 14 days hydroponics. The method, then:
Rice (cultivar: Nipponbare) A blank slurry solution containing 5% (V/V) color coat red (Becker Underwood, Inc.), 5% (V/V) CF-Clear (Becker Underwood, Inc.) and 1% Maxim XL (Syngenta) was prepared. A slurry solution was prepared by dissolving the present compound 1 in the blank slurry solution such that 50 g or 100 g of the compound is applied to each 100 kg of rice seeds. In a 50-ml centrifuge tube (manufactured by AGC TECHNO GLASS CO., LTD.), 0.3 ml of the slurry solution was placed for each 10 g of rice seeds and stirred until the solution was dried, thereby coating the seeds. In addition, seeds were coated with the blank slurry solution and used as seeds for a non-treated group. A filter paper was placed on the holes of a plug tray having 406 holes, and the rice seeds treated above were sown on the filter paper. […] Fourteen (14) days after the treatment, the fresh weight of the overground parts of five test plants in each treated group was measured. The experiment was performed in three replications in each treated group and the average value was calculated. […]

Regarding `O=C(O)c1cc2cc(C(F)(F)F)ccc2s1` [The present compound 1, 5-(trifluoromethyl)benzo[b]thiophene-2-carboxylic acid], the “fresh weight of the overground part of plants vs non-treated group” value is given as “much heavier” (seed treatment 50 g per 100 kg of seeds) and “much heavier” (seed treatment 100 g per 100 kg of seeds).

Source of the values: patent US9232792B2, “Method for promoting plant growth” (SUMITOMO CHEMICAL COMPANY, LIMITED, priority 2011, dated 2016).
